The target of experiment [1] is T1, Recombinant human IKKβ (residues 1-737) (Homo sapiens, UniProt O14920).
T1 construct: Recombinant human IKKβ (residues 1-737); GST (C); made in house
T1 sequence (O14920 1-737): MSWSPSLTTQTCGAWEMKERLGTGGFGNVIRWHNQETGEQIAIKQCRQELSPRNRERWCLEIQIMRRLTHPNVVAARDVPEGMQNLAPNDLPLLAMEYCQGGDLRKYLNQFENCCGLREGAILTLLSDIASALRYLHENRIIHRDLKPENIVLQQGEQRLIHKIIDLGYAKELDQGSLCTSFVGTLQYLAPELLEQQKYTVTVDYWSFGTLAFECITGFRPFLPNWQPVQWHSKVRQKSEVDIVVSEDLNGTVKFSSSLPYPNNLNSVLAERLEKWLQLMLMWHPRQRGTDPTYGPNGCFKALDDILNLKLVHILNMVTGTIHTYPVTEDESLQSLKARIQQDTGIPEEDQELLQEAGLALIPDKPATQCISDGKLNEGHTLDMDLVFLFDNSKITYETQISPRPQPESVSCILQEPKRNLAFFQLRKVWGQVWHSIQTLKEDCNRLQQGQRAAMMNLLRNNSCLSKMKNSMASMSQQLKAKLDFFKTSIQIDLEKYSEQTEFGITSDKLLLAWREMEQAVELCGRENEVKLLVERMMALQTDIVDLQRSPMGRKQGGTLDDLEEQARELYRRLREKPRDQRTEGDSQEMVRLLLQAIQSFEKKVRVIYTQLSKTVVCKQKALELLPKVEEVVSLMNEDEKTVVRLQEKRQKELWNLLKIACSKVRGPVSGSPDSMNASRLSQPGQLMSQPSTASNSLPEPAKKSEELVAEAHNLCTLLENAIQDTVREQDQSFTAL
Kind of experiment: IKK2 assay (TR-FRET). The note with it: ATP 1 μM final, read-out: pIC50 against IKK2 (converted). Type of experiment: biochemical. The method, boiled down: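 TR-FRET readout (665 nm over 620 nm Eu reference) of GST-IB Ser32/36 phosphorylation after 60 min detection. Reaction: 1 μM ATP, 25 nM substrate, 0.5-5 nM GST-fused IKKβ 1-737 from baculovirus, pH 7.4 HEPES buffer, 1.7% DMSO, 15 min room temperature, EDTA-terminated.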
(In TR-FRET formats the signal depends on donor and acceptor labels being close together.)

Experiment [2] has as its system human monocyte stimulated cytokine production (TNF-α). Briefly: Monocyte assay (LPS-stimulated TNF-α production). The note with it: for inhibition at 0.3 µM: read-out: inhibition at 300 nM in the monocyte assay; for IC50: 24 h, 200 ng/mL LPS, TNF-α by ELISA. Type of experiment: cell-based. The method, boiled down: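 TNF-α release was measured by ELISA after 24 hrs at 37 C. Cells were stimulated with 200 ng/mL E. coli LPS, with compound added 30 minutes beforehand (0.1% DMSO vehicle). Cells were Ficoll/MACS-isolated CD14+ human monocytes adhered at 1×10^6 cells/mL, and viability was checked by trypan blue.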
(An ELISA detects its analyte on a solid surface through an enzyme-linked reagent.)

The structures appear in SMILES notation. A value given as a limit tells only on which side of the number the result lay.

The inhibition is the change of the read-out against control, counted positive when it falls. Regarding `CCS(=O)(=O)N1CCC(c2c[nH]c3c(C(N)=O)cc(-c4cncc(CNCCCOC)c4)cc23)CC1` [Example 175, 3-[1-(ethylsulfonyl)-4-piperidinyl]-5-[5-({[3-(methyloxy)propyl]amino}methyl)-3-pyridinyl]-1H-indole-7-carboxamide], the IC50 in experiment [1] is no more than 10 µM. For the same molecule, in experiment [2], the inhibition at 0.3 µM was in the range of 0 to 60%.
As to `CCS(=O)(=O)N1CCC(c2c[nH]c3c(C(N)=O)cc(-c4cncc(CN5CCOCC5)c4)cc23)CC1` [Example 176, 3-[1-(ethylsulfonyl)-4-piperidinyl]-5-[5-(4-morpholinylmethyl)-3-pyridinyl]-1H-indole-7-carboxamide], in experiment [1], the IC50 was no more than 10 µM. Further, the inhibition at 0.3 µM in experiment [2] was in the range of 0 to 60%.
Take `CCNCc1cncc(-c2cc(C(N)=O)c3[nH]cc(C4CCN(S(=O)(=O)CC)CC4)c3c2)c1` [Example 177, 5-{5-[(ethylamino)methyl]-3-pyridinyl}-3-[1-(ethylsulfonyl)-4-piperidinyl]-1H-indole-7-carboxamide]: the IC50 in experiment [1] is no more than 10 µM. For the same molecule, the inhibition at 0.3 µM in experiment [2] lay within 0 to 60%.
As for `CCS(=O)(=O)N1CCC(c2c[nH]c3c(C(N)=O)cc(-c4cncc(CN(C)C)c4)cc23)CC1` [Example 178, 5-{5-[(dimethylamino)methyl]-3-pyridinyl}-3-[1-(ethylsulfonyl)-4-piperidinyl]-1H-indole-7-carboxamide], the IC50 in experiment [1] was no more than 10 µM. Besides, in experiment [2], the inhibition at 0.3 µM lay in the range of 0 to 60%.
Regarding `CCS(=O)(=O)N1CCC(c2c[nH]c3c(C(N)=O)cc(-c4cncc(CN5CCCC5C)c4)cc23)CC1` (stereo not shown) [Example 179, 3-[1-(ethylsulfonyl)-4-piperidinyl]-5-{5-[(2-methyl-1-pyrrolidinyl)methyl]-3-pyridinyl}-1H-indole-7-carboxamide], in experiment [1], the IC50 was no more than 10 µM. Also, the inhibition at 0.3 µM in experiment [2] was 0 to 60%.
Taken in the same sequence, the figures for `CCS(=O)(=O)N1CCC(c2c[nH]c3c(C(N)=O)cc(-c4cncc(CNCC(C)C)c4)cc23)CC1` [Example 180, 3-[1-(ethylsulfonyl)-4-piperidinyl]-5-(5-{[(2-methylpropyl)amino]methyl}-3-pyridinyl)-1H-indole-7-carboxamide] were no more than 10 µM and 0 to 60%.
In the case of `CCS(=O)(=O)N1CCC(c2c[nH]c3c(C(N)=O)cc(-c4cncc(CNCC(C)(C)C)c4)cc23)CC1` [Example 181, 5-(5-{[(2,2-dimethylpropyl)amino]methyl}-3-pyridinyl)-3-[1-(ethylsulfonyl)-4-piperidinyl]-1H-indole-7-carboxamide], in experiment [1], the IC50 was no more than 10 µM. The inhibition at 0.3 µM in experiment [2] was 0 to 60%.
Consider `CCC(C)CNCc1ccc(-c2cc(C(N)=O)c3[nH]cc(C4CCN(S(=O)(=O)CC)CC4)c3c2)s1` (stereo not shown) [Example 182, 3-[1-(ethylsulfonyl)-4-piperidinyl]-5-(5-{[(2-methylbutyl)amino]methyl}-2-thienyl)-1H-indole-7-carboxamide], for which the IC50 in experiment [1] was no more than 10 µM; in experiment [2] it was no more than 1.5 µM.
`CCCCCNCc1ccc(-c2cc(C(N)=O)c3[nH]cc(C4CCN(S(=O)(=O)CC)CC4)c3c2)s1` [Example 184, 3-[1-(ethylsulfonyl)-4-piperidinyl]-5-{5-[(pentylamino)methyl]-2-thienyl}-1H-indole-7-carboxamide]: the IC50 in experiment [1] is no more than 10 µM. Further, in experiment [2], the inhibition at 0.3 µM was in the range of 0 to 60%.
`CC[C@H](C)CNCc1ccc(-c2cc(C(N)=O)c3[nH]cc(C4CCN(S(=O)(=O)CC)CC4)c3c2)s1` [Example 185, 3-[1-(ethylsulfonyl)-4-piperidinyl]-5-[5-({[(2S)-2-methylbutyl]amino}methyl)-2-thienyl]-1H-indole-7-carboxamide]: in experiment [1], the IC50 was no more than 10 µM. The inhibition at 0.3 µM in experiment [2] is 0 to 60%.
`CCCC(C)NCc1ccc(-c2cc(C(N)=O)c3[nH]cc(C4CCN(S(=O)(=O)CC)CC4)c3c2)s1` (stereo not shown) [Example 186, 3-[1-(ethylsulfonyl)-4-piperidinyl]-5-(5-{[(1-methylbutyl)amino]methyl}-2-thienyl)-1H-indole-7-carboxamide]: the IC50 in experiment [1] is no more than 10 µM. Besides, the inhibition at 0.3 µM in experiment [2] lay within 0 to 60%.
Consider `CCCCNCc1ccc(-c2cc(C(N)=O)c3[nH]cc(C4CCN(S(=O)(=O)CC)CC4)c3c2)s1` [Example 187, 5-{5-[(butylamino)methyl]-2-thienyl}-3-[1-(ethylsulfonyl)-4-piperidinyl]-1H-indole-7-carboxamide], for which the IC50 in experiment [1] is no more than 10 µM. Moreover, the inhibition at 0.3 µM in experiment [2] is 0 to 60%.
Taken in the same sequence, the figures for `CCS(=O)(=O)N1CCC(c2c[nH]c3c(C(N)=O)cc(-c4ccc(CNCCOC)s4)cc23)CC1` [Example 188, 3-[1-(ethylsulfonyl)-4-piperidinyl]-5-[5-({[2-(methyloxy)ethyl]amino}methyl)-2-thienyl]-1H-indole-7-carboxamide] were no more than 10 µM and 0 to 60%.
Regarding `CCS(=O)(=O)N1CCC(c2c[nH]c3c(C(N)=O)cc(-c4ccc(CNC5CCCC5)s4)cc23)CC1` [Example 189, 5-{5-[(cyclopentylamino)methyl]-2-thienyl}-3-[1-(ethylsulfonyl)-4-piperidinyl]-1H-indole-7-carboxamide], in experiment [1], the IC50 was no more than 10 µM. In addition, the inhibition at 0.3 µM in experiment [2] lay in the range of 0 to 60%.
Take `CCS(=O)(=O)N1CCC(c2c[nH]c3c(C(N)=O)cc(-c4ccc(CNCCC(C)C)s4)cc23)CC1` [Example 190, 3-[1-(ethylsulfonyl)-4-piperidinyl]-5-(5-{[(3-methylbutyl)amino]methyl}-2-thienyl)-1H-indole-7-carboxamide]: the IC50 in experiment [1] was no more than 10 µM. Moreover, in experiment [2], the inhibition at 0.3 µM is 0 to 60%.
For `CCS(=O)(=O)N1CCC(c2c[nH]c3c(C(N)=O)cc(-c4cncc(CNC(C)C)c4)cc23)CC1` [Example 191, 3-[1-(ethylsulfonyl)-4-piperidinyl]-5-(5-{[(1-methylethyl)amino]methyl}-3-pyridinyl)-1H-indole-7-carboxamide], the IC50 in experiment [1] is no more than 10 µM; in experiment [2], no more than 1.5 µM.
Turning to `CCC(CC)CNCc1ccc(-c2cc(C(N)=O)c3[nH]cc(C4CCN(S(=O)(=O)CC)CC4)c3c2)s1` [Example 192, 5-(5-{[(2-ethylbutyl)amino]methyl}-2-thienyl)-3-[1-(ethylsulfonyl)-4-piperidinyl]-1H-indole-7-carboxamide], the IC50 was no more than 10 µM in experiment [1] and greater than 1 µM in experiment [2].
With `CCOCCCNCc1ccc(-c2cc(C(N)=O)c3[nH]cc(C4CCN(S(=O)(=O)CC)CC4)c3c2)s1` [Example 193, 5-[5-({[3-(ethyloxy)propyl]amino}methyl)-2-thienyl]-3-[1-(ethylsulfonyl)-4-piperidinyl]-1H-indole-7-carboxamide], the IC50 was no more than 10 µM in experiment [1] and greater than 1 µM in experiment [2].
In the case of `CCS(=O)(=O)N1CCC(c2c[nH]c3c(C(N)=O)cc(-c4ccc(CNCCCOC)s4)cc23)CC1` [Example 194, 3-[1-(ethylsulfonyl)-4-piperidinyl]-5-[5-({[3-(methyloxy)propyl]amino}methyl)-2-thienyl]-1H-indole-7-carboxamide], the IC50 in experiment [1] is no more than 10 µM; in experiment [2], greater than 1 µM.
Regarding `CCS(=O)(=O)N1CCC(c2c[nH]c3c(C(N)=O)cc(-c4ccc(CNCC5CCCCC5)s4)cc23)CC1` [Example 195, 5-(5-{[(cyclohexylmethyl)amino]methyl}-2-thienyl)-3-[1-(ethylsulfonyl)-4-piperidinyl]-1H-indole-7-carboxamide], the IC50 in experiment [1] was no more than 10 µM. Further, the inhibition at 0.3 µM in experiment [2] was in the range of 0 to 60%.
In the case of `CCS(=O)(=O)N1CCC(c2c[nH]c3c(C(N)=O)cc(-c4ccc(CNCCCOC(C)C)s4)cc23)CC1` [Example 196, 3-[1-(ethylsulfonyl)-4-piperidinyl]-5-{5-[({3-[(1-methylethyl)oxy]propyl}amino)methyl]-2-thienyl}-1H-indole-7-carboxamide], the values for the IC50 in experiment [1] and in experiment [2] were no more than 10 µM and greater than 1 µM, respectively.
`CCOCCNCc1ccc(-c2cc(C(N)=O)c3[nH]cc(C4CCN(S(=O)(=O)CC)CC4)c3c2)s1` [Example 197, 5-[5-({[2-(ethyloxy)ethyl]amino}methyl)-2-thienyl]-3-[1-(ethylsulfonyl)-4-piperidinyl]-1H-indole-7-carboxamide]: the IC50 is no more than 10 µM in experiment [1] and greater than 1 µM in experiment [2].
For the molecule `CCS(=O)(=O)N1CCC(c2c[nH]c3c(C(N)=O)cc(-c4ccc(CN[C@@H](C)C(C)(C)C)s4)cc23)CC1` [Example 200, 3-[1-(ethylsulfonyl)-4-piperidinyl]-5-[5-({[(1S)-1,2,2-trimethylpropyl]amino}methyl)-2-thienyl]-1H-indole-7-carboxamide], the IC50 in experiment [1] is no more than 10 µM; in experiment [2], greater than 1 µM.

Source of the values: patent US8063071B2 (GlaxoSmithKline, LLC, priority 2007, dated 2011).
